The values that follow come from patent US5332726A, “Antithrombotic peptides and pseudopeptides” (Rhone-Poulenc Rorer Pharmaceuticals Inc., priority 1992, dated 1994).

Assay [1] has as its target thrombin-stimulated platelets (Homo sapiens, UniProt P05106+P08514). Kind of assay: Fibrinogen-Binding Assay (125I-fibrinogen binding to platelets). As to conditions: 125I-fibrinogen 0.176 μmol/liter, thrombin-stimulated platelets; read-out: Inhibition of 125I-Fibrinogen Binding to Platelets IC50. The protocol:
Platelets are washed free of plasma constituents by the albumin density-gradient technique of Walsh, P. N., et al., Br. J. Haematol. […] After these additions, the final platelet count in the mixture is 1×10^11 /liter. After incubation for an additional 30 minutes at 22°-25° C., bound and free ligand are separated by centrifuging 50 μl of the mixture through 300 μl of 20% sucrose at 12,000×g for 4 minutes. The platelet pellet is then separated from the rest of the mixture to determine platelet-bound radioactivity. Nonspecific binding is measured in mixtures containing an excess of unlabeled ligand. […] The IC50 is derived by plotting residual fibrinogen binding against the logarithm of the sample compound's concentration.

Assay [2] concerns the target fixed activated platelets (Homo sapiens, UniProt P05106+P08514). Description: Platelet Aggregation Assay (fibrinogen-mediated aggregation of fixed-activated platelets). The class given is cell-based. The following applies: for IC50: fixed activated platelets, human fibrinogen 250 μg/ml, read-out: Inhibition of Fibrinogen Mediated Platelet Aggregation IC50; for inhibition at 25 µM: read-out: Inhibition of Fibrinogen Mediated Platelet Aggregation % inhibition at 25 μM; for inhibition at 100 µM: read-out: Inhibition of Fibrinogen Mediated Platelet Aggregation % inhibition at 100 μM. The protocol: PLATELET AGGREGATION ASSAY
Preparation of Fixed-Activated Platelets
To the activated platelets is added paraformaldehyde to a final concentration of 0.50% and this incubated at room temperature for 30 minutes. The fixed activated platelets are then collected by centrifugation at 650×g for 15 minutes.
Platelet Aggregation Assay
The fixed activated platelets are incubated with a selected dose of the compound to be tested for platelet aggregation inhibition for one minute and aggregation initiated by addition of human fibrinogen to a final concentration of 250 μg/ml. A platelet aggregation profiler Model PAP-4 is used to record the platelet aggregation.

Non-standard residues stand in square brackets, D forms with d. Residues, ends and D or L forms follow the SMILES beside them. NMeD = CN[C@@H](CC(=O)O)C(=O)O; Orn = NCCC[C@H](N)C(=O)O; Ava = NCCCCC(=O)O Bounds are passed on as bounds.

Chain of fixed activated platelets (P08514 32-1039): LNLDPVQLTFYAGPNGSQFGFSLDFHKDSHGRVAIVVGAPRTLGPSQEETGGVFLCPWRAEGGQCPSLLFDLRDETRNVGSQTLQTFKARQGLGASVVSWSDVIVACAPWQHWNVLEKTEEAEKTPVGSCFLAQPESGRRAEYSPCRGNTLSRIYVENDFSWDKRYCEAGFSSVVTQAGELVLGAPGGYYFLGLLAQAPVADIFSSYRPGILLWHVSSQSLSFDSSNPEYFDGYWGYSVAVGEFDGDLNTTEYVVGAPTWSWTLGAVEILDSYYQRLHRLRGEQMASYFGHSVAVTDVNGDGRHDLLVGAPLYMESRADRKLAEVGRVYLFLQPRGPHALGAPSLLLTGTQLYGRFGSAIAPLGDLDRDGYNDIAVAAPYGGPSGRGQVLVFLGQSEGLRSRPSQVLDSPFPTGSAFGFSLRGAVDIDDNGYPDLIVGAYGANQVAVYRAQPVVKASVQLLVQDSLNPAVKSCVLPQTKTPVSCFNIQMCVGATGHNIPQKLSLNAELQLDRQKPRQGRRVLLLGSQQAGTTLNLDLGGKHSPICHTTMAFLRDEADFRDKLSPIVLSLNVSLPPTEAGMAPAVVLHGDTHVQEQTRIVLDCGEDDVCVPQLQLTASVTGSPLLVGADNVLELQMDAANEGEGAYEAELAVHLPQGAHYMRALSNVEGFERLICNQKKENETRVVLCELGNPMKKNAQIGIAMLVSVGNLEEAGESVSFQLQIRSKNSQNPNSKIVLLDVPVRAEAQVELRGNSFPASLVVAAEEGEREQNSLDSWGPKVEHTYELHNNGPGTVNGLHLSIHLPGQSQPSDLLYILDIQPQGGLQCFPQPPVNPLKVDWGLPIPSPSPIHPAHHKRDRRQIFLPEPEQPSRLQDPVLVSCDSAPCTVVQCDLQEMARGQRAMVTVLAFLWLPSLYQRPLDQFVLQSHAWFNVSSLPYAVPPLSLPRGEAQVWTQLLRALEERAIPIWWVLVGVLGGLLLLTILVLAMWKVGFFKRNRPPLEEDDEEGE
Chain of fixed activated platelets (P05106 27-788): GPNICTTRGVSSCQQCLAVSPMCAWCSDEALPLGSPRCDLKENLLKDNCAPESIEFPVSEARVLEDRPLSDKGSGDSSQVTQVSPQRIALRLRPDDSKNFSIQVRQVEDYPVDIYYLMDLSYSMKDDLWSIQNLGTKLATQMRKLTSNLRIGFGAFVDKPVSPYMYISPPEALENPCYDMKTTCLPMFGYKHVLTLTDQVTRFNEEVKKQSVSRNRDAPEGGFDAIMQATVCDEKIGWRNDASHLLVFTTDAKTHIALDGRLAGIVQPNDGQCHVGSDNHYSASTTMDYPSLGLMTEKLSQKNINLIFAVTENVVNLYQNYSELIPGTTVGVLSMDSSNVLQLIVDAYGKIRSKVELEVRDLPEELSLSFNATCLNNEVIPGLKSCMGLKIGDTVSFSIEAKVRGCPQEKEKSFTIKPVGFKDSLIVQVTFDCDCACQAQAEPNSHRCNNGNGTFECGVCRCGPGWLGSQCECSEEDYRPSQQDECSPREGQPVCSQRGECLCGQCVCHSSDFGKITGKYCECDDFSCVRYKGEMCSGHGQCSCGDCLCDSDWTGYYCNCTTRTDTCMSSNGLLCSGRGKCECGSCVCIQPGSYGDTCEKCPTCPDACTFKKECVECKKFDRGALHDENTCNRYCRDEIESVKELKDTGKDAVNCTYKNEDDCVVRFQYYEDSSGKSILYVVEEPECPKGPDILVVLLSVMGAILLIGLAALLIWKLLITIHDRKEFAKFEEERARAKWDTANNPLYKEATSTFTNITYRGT
Chain of thrombin-stimulated platelets (P08514 32-1039): as the sequence (P08514 32-1039) above
Chain of thrombin-stimulated platelets (P05106 27-788): as the sequence (P05106 27-788) above

The IC50 is the concentration at which inhibition is half-maximal. Usually inhibition stands for the percentage by which the read-out fell short of the control. On to `CC(C)[C@H](NC(=O)[C@H](CC(=O)O)NC(=O)CNC(=O)CCCCCCNC(=N)N)C(=O)O` [7-Guanidinoheptanoyl-glycyl-L-aspartyl-L-valine], for which the IC50 in assay [1] was found to be 6400 nM; in assay [2], 21000 nM. Also, the inhibition at 25 µM in assay [2] is 56%.

Take `CC(C)[C@H](NC(=O)[C@H](CC(=O)O)NC(=O)CNC(=O)CCCCN)C(=O)O` [N-(5-Aminopentanoyl) glycyl-L-aspartyl-L-valine] (H-[Ava]GDV-OH): the IC50 is 68500 nM in assay [1] and more than 64000 nM in assay [2]. The inhibition at 100 µM in assay [2] worked out at 67%.

With `CCN(CC(=O)N[C@@H](CC(=O)O)C(=O)N[C@H](C(=O)O)C(C)C)C(=O)CCCCCn1ccnc1` [6-(Imidazol-1-yl)-hexanoyl-N-ethylglycyl-L-aspartyl-L-valine], the IC50 in assay [1] stood at 900 nM. Also, in assay [2], the IC50 turned out to be 1000 nM and the inhibition at 25 µM came to 95%.

With `CC[C@H](C)[C@H](NC(=O)[C@H](CC(=O)O)NC(=O)CN(CC)C(=O)CCCCCNC(=N)N)C(=O)O` [6-Guanidinohexanoyl-N-ethylglycyl-L-aspartyl-L-isoleucine], the IC50 in assay [1] was determined as 50 nM. In assay [2], the IC50 worked out at 560 nM and the inhibition at 25 µM worked out at 96%.

On to `CN(CC(=O)N[C@@H](CC(=O)O)C(=O)N[C@@H](CCCCN)C(=O)O)C(=O)CCCCCNC(=N)N` [6-Guanidinohexanoyl-sarcosyl-L-aspartyl-L-lysine], for which the IC50 in assay [1] worked out at 340 nM; in assay [2], 4100 nM. The inhibition at 25 µM in assay [2] turned out to be 86%.

Turning to `Cc1nccn1CCCCCCCCC(=O)N[C@@H](CC(=O)O)C(=O)N[C@H](C(=O)O)C(C)C`, in assay [2], the inhibition at 25 µM worked out at 74%.

As to `CCc1nccn1CCCCCC(=O)N(C)CC(=O)N[C@@H](CC(=O)O)C(=O)N[C@H](C(=O)O)C(C)C` [6-(2-Ethylimidazol-1-yl)hexanoyl-sarcosyl-L-aspartyl-L-valine], in assay [1], the IC50 was found to be 313 nM. In assay [2], the IC50 is 4900 nM and the inhibition at 25 µM amounted to 89%.

For `N=C(N)NCCCCC(=O)NCC(=O)N[C@@H](CC(=O)O)C(=O)NCCc1ccccc1` [N-(5-guanidinopentanoyl)glycyl-L-aspartylphenethylamide], in assay [1], the IC50 was determined as 20000 nM. In assay [2], the IC50 was 2100 nM and the inhibition at 100 µM amounted to 86%.

As to `CCCCOC(=O)C[C@H](NC(=O)CN(C)C(=O)CCCCCNC(=N)N)C(=O)N[C@H](C(=O)O)C(C)C` [6-Guanidinohexanoyl-sarcosyl-L-aspartyl-β-butylester-L-valine], in assay [2], the IC50 is more than 25000 nM and the inhibition at 25 µM was found to be 18%.

With `COC(=O)[C@H](CCCNC(=N)N)NC(=O)[C@H](CC(=O)O)NC(=O)CCCCCCCCNC(=N)N` [9-Guanidinononanoyl-L-aspartyl-L-arginine methylester], in assay [2], the IC50 was determined as 1700 nM and the inhibition at 25 µM is 91%.

In the case of `CC(C)[C@H](NC(=O)[C@H](CC(=O)O)NC(=O)CCCCCCCNC(=N)N)c1nnn[nH]1` [8-Guanidinooctanoyl-L-aspartyl-L-valine-5-tetrazole], in assay [2], the IC50 was more than 25000 nM and the inhibition at 25 µM came out at 32%.

On to `CC(C)C[C@@H](CCC(=O)N[C@@H](CCCNC(=N)N)C(=O)O)NC(=O)[C@H](CC(=O)O)NC(=O)CCCCCCCCNC(=N)N` [N-[N-(9-Guanidinononanoyl-L-aspartyl)-(R)-4-amino-4-isobutylbutyryl]-L-arginine], for which the IC50 in assay [1] amounted to 2100 nM.

Take `COC(=O)[C@](CCCNC(=N)N)(CC(C)C)NC(=O)[C@H](CC(=O)O)NC(=O)CCCCCCCCNC(=N)N` [9-Guanidinononanoyl-L-aspartyl-(S)-α-isobutyl-arginine methylester]: in assay [2], the IC50 is more than 25000 nM and the inhibition at 25 µM stood at 0%.

Take `CCC(C)C[C@@H](NC(=O)[C@H](CC(=O)O)NC(=O)CCCCCCCCNC(=N)N)C(=O)N[C@@H](CCCNC(=N)N)C(=O)O` (stereo partly drawn) [9-Guanidinononanoyl-L-aspartyl-D-homoisoleucyl-L-arginine]: in assay [2], the inhibition at 25 µM came to 98%.

Consider `CCC(C)C(CNC(=O)[C@H](CC(=O)O)NC(=O)CCCCCCCCNC(=N)N)C(=O)N[C@@H](CCCNC(=N)N)C(=O)O` (stereo partly drawn) [N-(9-Guanidinononanoyl-L-aspartyl)-3-amino-2-sec-butyl propionic acid L-arginine amide], for which, in assay [2], the inhibition at 25 µM came to 89%.

In the case of `CC[C@H](C)[C@@H](CN[C@@H](CCCNC(=N)N)C(=O)O)NC(=O)[C@H](CC(=O)O)NC(=O)CCCCCCCCNC(=N)N` [9-Guanidinononanoyl-L-aspartyl-β-homo-L-isoleucyl psi(CH2 NH)-L-arginine], the inhibition at 25 µM in assay [2] amounted to 38%.

On to `CC(C)[C@H](NC(=O)[C@@H](N)CCCNC(=O)[C@@H](N)CCCNC(=N)N)C(=O)O` [N-δ-(L-arginyl)-L-ornithyl-L-valine] (H-[Orn](Arg)-Val-OH), for which the inhibition at 100 µM in assay [2] was 20%.

`CCCCOC(=O)[C@@H](NC(=O)[C@H](CC(=O)O)NC(=O)CN(C)C(=O)CCCCCNC(=N)N)C(C)C` [6-Guanidinohexanoyl-sarcosyl-L-aspartyl-L-valine-butylester]: in assay [2], the IC50 was 4500 nM and the inhibition at 25 µM amounted to 90%.

For `CC(C)(C)[C@H](NC(=O)[C@H](CC(=O)O)NC(=O)CCCCCCCCNC(=N)N)C(=O)N[C@@H](CCCNC(=N)N)C(=O)O` [9-Guanidinononanoyl-L-aspartyl-L-t-butylglycyl-L-arginine], in assay [2], the IC50 worked out at 1500 nM and the inhibition at 25 µM came out at 96%.

With `CC(C)[C@H](NC(=O)[C@H](CC(=O)O)N(C)C(=O)CNC(=O)[C@@H](N)CCCNC(=N)N)C(=O)O` [L-arginyl-glycyl-L-N-methylaspartyl-L-valine] (H-RG[NMeD]V-OH), the IC50 in assay [2] was more than 64000 nM.

Consider `CC(C)CC(CCCN)(NC(=O)[C@H](CC(=O)O)NC(=O)CCCCCCCCNC(=N)N)C(=O)O` (stereo partly drawn) [9-Guanidinononanoyl-L-aspartyl-(R,S)-α-isobutylornithine], for which, in assay [2], the IC50 was more than 25000 nM and the inhibition at 25 µM came to 4%.

As for `CC(C)[C@H](NC(=O)[C@H](CC(=O)O)NC(=O)CN(C)C(=O)CCCCCn1ccnc1)C(=O)O` [6-(Imidazol-1-yl)-hexanoylsarcosyl-L-aspartyl], in assay [2], the inhibition at 25 µM amounted to 94%.

Consider `C[C@H](NC(=O)[C@H](CC(=O)O)NC(=O)CCCCCCCCNC(=N)N)C(=O)N[C@@H](CCCNC(=N)N)C(=O)O` [9-Guanidinononanoyl-L-aspartyl-L-alanyl-L-arginine], for which, in assay [2], the IC50 was 540 nM and the inhibition at 25 µM came to 89%.

For `N=C(N)NCCC[C@H](N)C(=O)NCC(=O)N[C@@H](CC(=O)O)C(=O)NCC(=O)O` [L-arginylglycyl-L-aspartyl glycine] (H-RGDG-OH), in assay [2], the IC50 amounted to 14300 nM and the inhibition at 100 µM stood at 91%.

Turning to `CC[C@H](C)[C@H](NC(=O)[C@@H](NC(=O)[C@H](CC(=O)O)NC(=O)CCCCCCCCNC(=N)N)[C@@H](C)CC)C(=O)O` [9-Guanidinononanoyl-L-aspartyl-L-isoleucyl-L-isoleucine], in assay [2], the half-inhibitory concentration (IC50) is more than 25000 nM and the inhibition at 25 µM is 45%.

On to `CC(C)[C@H](NC(=O)[C@H](CC(=O)O)NC(=O)CCCCNC(=N)N)C(=O)O` [5-guanidinovaleroyl-L-aspartyl-L-valine], for which the inhibition at 25 µM in assay [2] was determined as 28%.

On to `CCC(C)[C@H](CCCNC(=N)N)NC(=O)[C@H](CC(=O)O)NC(=O)CCCCCCCCNC(=N)N` (stereo partly drawn) [9-Guanidinononanoyl-L-aspartyl-((S)-4-amino-4-sec-butylbutyl)guanidine], for which the inhibition at 25 µM in assay [2] worked out at 76%.

In the case of `CC(C)C[C@@H](CCCNC(=N)N)NC(=O)[C@H](CC(=O)O)NC(=O)CCCCCCCCNC(=N)N` [(R)-4-[N-(9-Guanidinononanoyl-L-aspartyl)-amino]-4-isobutylbutylguanidine], the inhibition at 25 µM in assay [2] amounted to 94%.

Consider `CCC(C)C[C@H](NC(=O)[C@H](CC(=O)O)NC(=O)CCCCCCCCNC(=N)N)C(=O)N[C@@H](CCCNC(=N)N)C(=O)O` (stereo partly drawn) [9-Guanidinononanoyl-L-aspartyl-homo-L-isoleucyl-L-arginine], for which the inhibition at 25 µM in assay [2] amounted to 94%.

Regarding `CC(C)[C@H](NC(=O)[C@H](CC(=O)O)NC(=O)CCCCCCCCNC(=N)N)C(=O)N[C@@H](CCCNC(=N)N)C(=O)O` [9-Guanidinononanoyl-L-aspartyl-L-valine-L-arginine], in assay [2], the IC50 worked out at 220 nM and the inhibition at 25 µM was determined as 98%.

Turning to `CC[C@@H](C)[C@H](CC(=O)NCCCCNC(=N)N)NC(=O)[C@H](CC(=O)O)NC(=O)CCCCCCCCNC(=N)N` [9-Guanidinononanoyl-L-aspartyl-D-β-homoiso-leucyl-(des-carboxy)-L-arginine], in assay [2], the IC50 worked out at 3300 nM and the inhibition at 25 µM was determined as 94%.

Regarding `CC(C)C[C@H](NC(=O)[C@H](CC(=O)O)NC(=O)CCCCCCCCNC(=N)N)C(=O)N[C@@H](CCCNC(=N)N)C(=O)O` [9-Guanidinononanoyl-L-aspartyl-L-leucyl-L-arginine], in assay [2], the IC50 was 520 nM and the inhibition at 25 µM is 96%.

On to `N=C(N)NCCCCCCCC(=O)NCC(=O)NCC(=O)O` [8-Guanidinooctanoyl-glycyl-glycine], for which the inhibition at 25 µM in assay [2] was 12%.
